Tests used:
[1] = molecular target: T1, CDK1/Cyclin B (Homo sapiens, UniProt P06493); assay: Enzymatic assay for CDK1 (LANCE Ultra kinase assay, FRET based); assay type: biochemical; conditions: ATP at Km; read-out: CDK1 enzymatic activity IC50
T1 construct: purchased Invitrogen PR4768C
In short: (§1)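 Purified CDK–cyclin enzyme, ATP at Km; ULight peptide substrate; TR-FRET via Eu anti-phospho-Ab; inhibition scored.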

[2] = test system: A2780; assay: A2780 viability assay (CellTiter-Glo, 72 hours); assay type: cell-based; conditions: Homo sapiens; A2780 cells
In short: (§2)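 RPMI-1640/10% FBS; plate cells (MV4-11 1×10^4, OVCAR-3 5×10^3, A2780 1×10^3 per well); 24 h later add compound 0.0015–10 uM; 72 h, 37° C; CellTiter-Glo luminescence, duplicate wells.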

[3] = test system: OVCAR-3; assay: OVCAR-3 viability assay (CellTiter-Glo, 72 hours); assay type: cell-based; conditions: Homo sapiens; OVCAR-3 cells
In short: as §2

[4] = test system: MV4-11; assay: Cellular MV4-11 viability assay (CellTiter-Glo, 72 hours); assay type: cell-based; conditions: Homo sapiens; MV4-11 cells
Description: Human […] cell line, MV4-11_(ATCC, Cat #CRL-9591), NSCLC (Non-small cell lung cancer) cell line H460 (ATCC, Cat #HTB-177), A2780 (ECACC, Cat #93112519) and OVCAR-3(ATCC, Cat #HTB-161) were obtained from ATCC. Cells were grown in RPMI-1640 media (Invitrogen, Cat #22400-089) supplemented with 10% FBS (Invitrogen, Cat #10099141) and 1% penicillin/streptomycin (Invitrogen, Cat #15070063) and cultured at 37° C., 5% CO2 in a humidified chamber. All cell lines were routinely tested for mycoplasma.
To effect of the CDK7 inhibitor to inhibit the growth of target cancer cells, viability assay were conducted a 72 hour time period. Briefly, the candidate cell line was plated in 96 well plate at the following density of cells respectively. 1×10^4 cells/well for MV4-11, 5×10^3 for H460 and OVCAR-3, and 1×10^3 for A2780. After 24 hours, the cells were treated with various concentrations of the compound (ranging from 0.0015 uM to 10 uM). DMSO solvent without compound served as a control and final DMSO concentration lest than 0.1%. After 72 hours of incubation at 37° C., 5% CO2 incubator, cells were analyzed for the viability using the CellTiter-Glo Luminescent Cell Viability Assay (Promega, Cat #G7570). All viability assays were performed in duplicate and Luminescence was read using an Envision (Perkin Elmer, USA). Data was analyzed using XLfit software.

[5] = molecular target: T2, CDK2/Cyclin A (Homo sapiens, UniProt P24941); assay: Enzymatic assay for CDK2 (LANCE Ultra kinase assay, FRET based); assay type: biochemical; conditions: ATP at Km
T2 construct: purchased Invitrogen PV6290
In short: (§3)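 Inhibition was measured at ATP Km with 68 nM ULight-MBP peptide and CDK2/Cyclin A ([…]) or CDK5/p25 ([…]), using 8-dose 4-fold compound dilutions from DMSO. Kinase reaction ran 60 min at 23° C, then Eu anti-phospho-MBP plus EDTA were added for another 60 min before the fluorescence read.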

[6] = molecular target: T3, CDK5/p25 (Homo sapiens, UniProt Q00535); assay: Enzymatic assay for CDK5 (LANCE Ultra kinase assay, FRET based); assay type: biochemical; conditions: ATP at Km
T3 construct: purchased Invitrogen PR8543B
In short: as §3

[7] = molecular target: T4, CDK7/Cyclin H/MNAT1 (Homo sapiens, UniProt P50613); assay: Enzymatic assay for CDK7 (LANCE Ultra kinase assay, FRET based); assay type: biochemical; conditions: for IC50: ATP at Km
T4 construct: purchased Invitrogen PR6749B
In short: as §1

T3 sequence (Q00535 whole entry): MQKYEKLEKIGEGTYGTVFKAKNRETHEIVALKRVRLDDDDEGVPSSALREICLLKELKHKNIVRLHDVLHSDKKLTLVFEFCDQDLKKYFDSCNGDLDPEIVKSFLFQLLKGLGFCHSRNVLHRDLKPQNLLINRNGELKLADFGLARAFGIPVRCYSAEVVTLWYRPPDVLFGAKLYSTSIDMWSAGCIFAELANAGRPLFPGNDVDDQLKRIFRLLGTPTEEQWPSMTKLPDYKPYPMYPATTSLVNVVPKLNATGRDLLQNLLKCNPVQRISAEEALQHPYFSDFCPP
T3 sequence (Q15078 99-307 partner limits assumed): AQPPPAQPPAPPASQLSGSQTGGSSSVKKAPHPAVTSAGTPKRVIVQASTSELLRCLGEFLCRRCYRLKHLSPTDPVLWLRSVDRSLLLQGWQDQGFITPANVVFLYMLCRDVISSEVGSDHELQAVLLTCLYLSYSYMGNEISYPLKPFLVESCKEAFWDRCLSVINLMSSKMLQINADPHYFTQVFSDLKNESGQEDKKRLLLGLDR
T1 sequence (P06493 whole entry): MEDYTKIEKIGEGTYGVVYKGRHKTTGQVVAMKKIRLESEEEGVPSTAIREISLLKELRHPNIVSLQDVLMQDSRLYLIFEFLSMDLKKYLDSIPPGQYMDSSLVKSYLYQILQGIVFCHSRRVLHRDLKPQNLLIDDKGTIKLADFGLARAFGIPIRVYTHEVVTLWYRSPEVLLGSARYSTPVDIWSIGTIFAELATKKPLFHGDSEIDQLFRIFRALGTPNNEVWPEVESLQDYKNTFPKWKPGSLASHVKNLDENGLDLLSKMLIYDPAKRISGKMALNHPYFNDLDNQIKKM
T1 sequence (P14635 whole entry partner): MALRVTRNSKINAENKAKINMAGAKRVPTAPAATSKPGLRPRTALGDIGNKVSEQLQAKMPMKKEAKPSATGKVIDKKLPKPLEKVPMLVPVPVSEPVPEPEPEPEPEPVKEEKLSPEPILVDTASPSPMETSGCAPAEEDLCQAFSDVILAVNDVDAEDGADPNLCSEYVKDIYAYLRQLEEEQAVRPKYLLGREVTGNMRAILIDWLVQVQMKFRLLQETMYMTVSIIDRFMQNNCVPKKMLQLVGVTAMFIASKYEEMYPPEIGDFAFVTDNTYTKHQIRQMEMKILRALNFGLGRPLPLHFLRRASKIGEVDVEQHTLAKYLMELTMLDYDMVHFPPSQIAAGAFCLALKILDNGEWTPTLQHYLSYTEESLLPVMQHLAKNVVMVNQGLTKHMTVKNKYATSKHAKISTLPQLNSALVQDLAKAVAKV
T4 sequence (P50613 whole entry): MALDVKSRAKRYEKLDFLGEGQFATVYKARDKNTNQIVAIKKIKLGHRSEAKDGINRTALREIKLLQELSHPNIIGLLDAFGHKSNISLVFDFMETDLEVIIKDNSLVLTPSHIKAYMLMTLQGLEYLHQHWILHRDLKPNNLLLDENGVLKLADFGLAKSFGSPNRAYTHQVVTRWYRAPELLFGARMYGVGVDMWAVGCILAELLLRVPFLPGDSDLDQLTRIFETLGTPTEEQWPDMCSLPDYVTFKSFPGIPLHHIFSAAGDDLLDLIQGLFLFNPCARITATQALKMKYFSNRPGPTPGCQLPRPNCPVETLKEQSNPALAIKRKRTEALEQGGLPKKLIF
T4 sequence (P51946 whole entry partner): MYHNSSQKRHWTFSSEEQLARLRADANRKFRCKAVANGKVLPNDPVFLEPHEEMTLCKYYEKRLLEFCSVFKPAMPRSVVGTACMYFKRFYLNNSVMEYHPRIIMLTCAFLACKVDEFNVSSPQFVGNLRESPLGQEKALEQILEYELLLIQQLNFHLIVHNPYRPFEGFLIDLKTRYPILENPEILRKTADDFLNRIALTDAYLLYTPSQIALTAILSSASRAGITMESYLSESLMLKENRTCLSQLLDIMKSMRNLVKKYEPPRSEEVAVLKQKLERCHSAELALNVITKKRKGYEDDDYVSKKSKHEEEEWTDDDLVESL
T4 sequence (P51948 whole entry partner): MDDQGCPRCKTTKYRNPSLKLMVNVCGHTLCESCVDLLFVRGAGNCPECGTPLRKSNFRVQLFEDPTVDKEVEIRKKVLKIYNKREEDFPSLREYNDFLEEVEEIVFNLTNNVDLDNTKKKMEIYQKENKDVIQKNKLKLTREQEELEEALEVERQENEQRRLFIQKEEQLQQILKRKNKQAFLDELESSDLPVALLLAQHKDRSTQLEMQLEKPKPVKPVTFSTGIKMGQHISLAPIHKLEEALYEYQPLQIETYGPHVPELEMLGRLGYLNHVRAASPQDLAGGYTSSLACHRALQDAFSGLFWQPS

Structure (SMILES) | IC50 [1] | IC50 [2] | IC50 [3] | IC50 [4] | IC50 [5] | IC50 [6] | IC50 [7] | CDK1/CDK7: Selectivity of CDK7 inhibition over CDK1 inhibition [7] | CDK2/CDK7: Selectivity of CDK7 inhibition over CDK2 inhibition [7] | CDK5/CDK7: Selectivity of CDK7 inhibition over CDK5 inhibition [7]
C/C=C/C(=O)Nc1ccc2c(-c3ccccc3CNc3nc(N4CCC(N)CC4)nc4c(C(C)C)cnn34)nccc2c1 [Compound 50] | > 1000 nM | < 1000 nM | < 1000 nM | < 1000 nM | > 1000 nM | > 1000 nM | < 100 nM | A (A indicates [fold] > 500) | A (A indicates [fold] > 500) | A (A indicates [fold] > 500)
CC(C)c1cnn2c(NCc3ccccc3-c3nccc4cc(NC(=O)/C=C/CN(C)C)ccc34)nc(NCCC3CNCCO3)nc12 (racemic) [Compound 51] | > 1000 nM | < 1000 nM | < 1000 nM | < 1000 nM | > 1000 nM | > 1000 nM | < 100 nM | A (A indicates [fold] > 500) | A (A indicates [fold] > 500) | A (A indicates [fold] > 500)
CC(C)c1cnn2c(NCc3ccccc3-c3nccc4cc(NC(=O)/C=C/CN(C)C)ccc34)nc(N[C@H]3CC[C@H](O)C3)nc12 [Compound 32] | > 1000 nM | < 1000 nM | < 1000 nM | < 1000 nM | > 1000 nM | > 1000 nM | < 100 nM | A (A indicates [fold] > 500) | A (A indicates [fold] > 500) | A (A indicates [fold] > 500)
CC(C)c1cnn2c(NCc3ccccc3-c3nccc4cc(NC(=O)/C=C/CN(C)C)ccc34)nc(NC[C@H]3CC[C@H](O)CC3)nc12 [Compound 33] | > 1000 nM | < 1000 nM | < 1000 nM | < 1000 nM | > 1000 nM | > 1000 nM | 100 to 1000 nM | B (B indicates 50 < [fold] ≤ 500) | B (B indicates 50 < [fold] ≤ 500) | B (B indicates 50 < [fold] ≤ 500)
CC(C)c1cnn2c(NCc3ccccc3-c3nccc4cc(NC(=O)/C=C/CN5CCCCC5)ccc34)nc(N3CCC(N)CC3)nc12 [Compound 52] | > 1000 nM | < 1000 nM | < 1000 nM | < 1000 nM | > 1000 nM | > 1000 nM | < 100 nM | A (A indicates [fold] > 500) | A (A indicates [fold] > 500) | A (A indicates [fold] > 500)
C/C=C/C(=O)Nc1ccc2c(-c3ccccc3CNc3nc(NC[C@H]4CNC[C@@H]4O)nc4c(C(C)C)cnn34)nccc2c1 [Compound 77] | > 1000 nM | 1000 to 10000 nM | 1000 to 10000 nM | < 1000 nM | > 1000 nM | > 1000 nM | < 100 nM | A (A indicates [fold] > 500) | A (A indicates [fold] > 500) | A (A indicates [fold] > 500)
C/C=C/C(=O)Nc1ccc2c(-c3ccccc3CNc3cc(NC[C@H]4CCNC[C@@H]4O)nc4c(C(C)C)cnn34)nccc2c1 [Compound 72] | > 1000 nM | < 1000 nM | < 1000 nM | < 1000 nM | > 1000 nM | > 1000 nM | < 100 nM | A (A indicates [fold] > 500) | A (A indicates [fold] > 500) | A (A indicates [fold] > 500)
CC(C)c1cnn2c(NCc3ccccc3-c3nccc4cc(NC(=O)/C=C/CN(C)C)ccc34)nc(N3CCNCC3)nc12 [Compound 59] | > 1000 nM | < 1000 nM | < 1000 nM | < 1000 nM | > 1000 nM | > 1000 nM | < 100 nM | A (A indicates [fold] > 500) | A (A indicates [fold] > 500) | A (A indicates [fold] > 500)
CC(C)c1cnn2c(NCc3ccccc3-c3nccc4cc(NC(=O)/C=C/CN(C)C)ccc34)nc(NCCCO)nc12 [Compound 28] | > 1000 nM | < 1000 nM | < 1000 nM | < 1000 nM | > 1000 nM | > 1000 nM | 100 to 1000 nM | B (B indicates 50 < [fold] ≤ 500) | B (B indicates 50 < [fold] ≤ 500) | B (B indicates 50 < [fold] ≤ 500)
CC(C)c1cnn2c(NCc3ccccc3-c3nccc4cc(NC(=O)/C=C/CN(C)C)ccc34)nc(NCC3CCNC(=O)C3)nc12 (racemic) [Compound 30] | > 1000 nM | < 1000 nM | < 1000 nM | < 1000 nM | > 1000 nM | > 1000 nM | 100 to 1000 nM | B (B indicates 50 < [fold] ≤ 500) | B (B indicates 50 < [fold] ≤ 500) | B (B indicates 50 < [fold] ≤ 500)
CC(C)c1cnn2c(NCc3ccccc3-c3nccc4cc(NC(=O)/C=C/CN5CCCC5)ccc34)nc(N3CCC(N)CC3)nc12 [Compound 57] | > 1000 nM | < 1000 nM | < 1000 nM | < 1000 nM | > 1000 nM | > 1000 nM | < 100 nM | A (A indicates [fold] > 500) | A (A indicates [fold] > 500) | A (A indicates [fold] > 500)
C=C(F)C(=O)Nc1ccc2c(-c3ccccc3CNc3nc(N4CCNCC4)nc4c(C(C)C)cnn34)nccc2c1 [Compound 79] | > 1000 nM | < 1000 nM | < 1000 nM | < 1000 nM | > 1000 nM | > 1000 nM | < 100 nM | A (A indicates [fold] > 500) | A (A indicates [fold] > 500) | A (A indicates [fold] > 500)
CC(C)c1cnn2c(NCc3ccccc3-c3nccc4cc(NC(=O)/C=C/CN(C)C)ccc34)nc(NCC3CNCCO3)nc12 (racemic) [Compound 62] | > 1000 nM | < 1000 nM | < 1000 nM | < 1000 nM | > 1000 nM | > 1000 nM | < 100 nM | A (A indicates [fold] > 500) | A (A indicates [fold] > 500) | A (A indicates [fold] > 500)
C=C(C)C(=O)Nc1ccc2c(-c3ccccc3CNc3nc(N4CCC(N)CC4)nc4c(C(C)C)cnn34)nccc2c1 [Compound 48] | > 1000 nM | < 1000 nM | < 1000 nM | < 1000 nM | > 1000 nM | > 1000 nM | < 100 nM | A (A indicates [fold] > 500) | A (A indicates [fold] > 500) | A (A indicates [fold] > 500)

Source: patent US12606561B2, “Substituted pyrazolo[1,5-a][1,3,5]triazines as CDK inhibitors” (QURIENT CO., LTD., priority 2018, dated 2026)
